Test results from patent publication US20210251269A1, “Beverages Comprising Highly Soluble Steviol Glycoside Blend and Glucosylated Steviol Glycosides” (The Coca-Cola Company, priority 2018, published 2021).

How the values were obtained:
[1] = Solubility at syrup stage (lemon lime and cola beverage syrup, 5.5+1); type: physicochemical
Protocol: The ingredients were dissolved in filtered water to constitute a syrup, then the final beverage was made by weighing the appropriate syrup amount and adding carbonated water using a ratio of 1-part syrup+5.5 parts carbonated water. Final beverages were filled in 300 ml glass bottles then aged for 3 days at 35° C. before they were cooled and served cold (4° C.). The control with Reb-M was made by heating water up to around 47° C. then dissolving Reb-M. After complete dissolution, the concentrated Reb-M solution was cooled down to ambient temperature before the rest of the ingredients were added.

[2] = Sensory evaluation of beverages by expert panelists; type: in vivo; settings: 480 ppm steviol glycosides in finished beverage; at least 5 expert panelists, blind; carbonated beverages tasted at 4° C.
Protocol: Steviol glycosides with high purity (>95%) namely Rebaudioside A, B, D, M, Glycosylated steviol glycoside (GSG) were evaluated in acidified citric buffer, a lemon lime and a cola carbonated beverage at concentration of 480 ppm in finished beverage.
The beverages were evaluated blindly by at least 5 expert panelists who work and taste steviol glycosides sweetened beverages daily. Samples were coded and randomly presented to the panelists. Panelists were instructed to eat an unsalted cracker and rinse the mouth with water before and in between samples. The maximum samples for each session was set at 5 samples to avoid fatigue. For each sample, panelists were instructed to take 3 sips, then write down their evaluation comments. Mock beverages were tasted at ambient temperature while carbonated beverages (diet lemon lime and cola) were tasted at 4° C.

[3] = cited from earlier work

solubility at syrup stage [1]	SMILES	Panelist Rating (1 = most preferred, 6 = least preferred) [2]	aqueous solubility [3]
0.1%	C=C1C[C@@]23CC[C@H]4[C@@](C)(CCC[C@@]4(C)C(=O)O[C@@H]4O[C@H](CO)[C@@H](O)[C@H](O[C@@H]5O[C@H](CO)[C@@H](O)[C@H](O)[C@H]5O)[C@H]4O[C@@H]4O[C@H](CO)[C@@H](O)[C@H](O)[C@H]4O)[C@@H]2CC[C@]1(O[C@@H]1O[C@H](CO)[C@@H](O)[C@H](O[C@@H]2O[C@H](CO)[C@@H](O)[C@H](O)[C@H]2O)[C@H]1O[C@@H]1O[C@H](CO)[C@@H](O)[C@H](O)[C@H]1O)C3 [Reb-M, Rebaudioside M]	2	
	C=C1C[C@@]23CC[C@H]4[C@@](C)(CCC[C@@]4(C)C(=O)O[C@@H]4O[C@H](CO)[C@@H](O)[C@H](O)[C@H]4O)[C@@H]2CC[C@]1(O[C@@H]1O[C@H](CO)[C@@H](O)[C@H](O[C@@H]2O[C@H](CO)[C@@H](O)[C@H](O)[C@H]2O)[C@H]1O[C@@H]1O[C@H](CO)[C@@H](O)[C@H](O)[C@H]1O)C3 [Rebaudioside A]		about 0.8 wt %
